Experimental data published in publication PMC7787448, “Development of an orally-administrable tumor vasculature-targeting therapeutic using annexin A1-binding D-peptides” (PLoS ONE, 2021).
Several values for one entry are separate records, joined by “and”; a condition that tells them apart may be missing. Equal entries are not always repeated. Non-standard residues stand in square brackets, D forms with d. Residues, ends and D or L forms follow the SMILES beside them. No end group written: not given here. *: point of attachment. Biotin = O=C1N[C@H]2[C@H](CS[C@H]2CCCCC(=O)*)N1

Columns and labels:
[1] = test system: C6-Luc brain tumor; assay: Near infra-red fluorescence whole body imaging of IRDye-conjugated D-peptides in brain tumor-bearing mice; type: in vivo, mouse; conditions: IRDye 800CW conjugates, tail vein, nude mice with C6-Luc brain tumors, IVIS imaging 15 min to 144 h
[2] = molecular target: T1, synthetic human MC16 peptide (ANXA1 N-terminus) (Homo sapiens, UniProt P04083); assay: Plate binding assay of biotinylated dTIT7 to MC16-coated wells (streptavidin-peroxidase, A450); conditions: N-terminal biotinylated dTIT7 added to MC16-coated plastic wells, peroxidase-streptavidin colour reaction, read-out: Kd of dTIT7 bound to WT MC16
T1 construct: chemically synthesized ANXA1 N-terminus (1–15 residues plus a cysteine at 16); purchased Bio-Synthesis (Lewisville, TX); host or cells: chemical synthesis
Protocol: To assess dTIT7 binding, wells of Sulfhydryl-BIND Surface Maleimide plates (Corning) were coated 20 hours with wild type (WT) and mutant L-MC16 in water at 4°C. After washing with PBS containing 0.02% Tween 20 (PBST), wells were blocked 1 hour with 10% superblock (Thermo) in PBST at room temperature. Biotinylated dTIT7 (10 μg dissolved in 10% superblock in PBST (1 mL) prepared as above was added to each well at 100 μl/well and incubated 30 min at room temperature for. After three PBST washes, 100 μl streptavidin-peroxidase (0.2 μg/ml) in 10% superblock in PBST containing 2% bovine serum albumin was added to each well and incubated 30 min. After three PBST washes, 100 μL of the peroxidase substrate one-step-TMB (Thermo) was added and incubated until the color developed. The reaction was stopped by adding 100 μl 2N sulfuric acid, and absorbance at 450 nm monitored using an ELISA plate reader. […]
Fig 2 Binding of dTIT7 to an ANXA1 N-terminal domain peptide or to full-length ANXA1 protein. […] In A and B, biotinylated dTIT7 peptide (1 μg/mL) was added to each MC16-coated plastic well and binding of peptide to MC16 was detected by a peroxidase-conjugated streptavidin and peroxidase color reaction. […]

[3] = molecular target: T2, recombinant full-length ANXA1 (Homo sapiens, UniProt P04083); set-up: method as in PMID 32921792; conditions: IF7 with ANXA1; cited from earlier work
T2 construct: Recombinant, full-length ANXA1 was expressed using the baculovirus expression system; honeybee melittin signal peptide (N, cleaved yes); His8-tag (N, cleaved yes); made in house; host or cells: Sf9 insect cells (baculovirus), secreted
T2 sequence (P04083 1-346): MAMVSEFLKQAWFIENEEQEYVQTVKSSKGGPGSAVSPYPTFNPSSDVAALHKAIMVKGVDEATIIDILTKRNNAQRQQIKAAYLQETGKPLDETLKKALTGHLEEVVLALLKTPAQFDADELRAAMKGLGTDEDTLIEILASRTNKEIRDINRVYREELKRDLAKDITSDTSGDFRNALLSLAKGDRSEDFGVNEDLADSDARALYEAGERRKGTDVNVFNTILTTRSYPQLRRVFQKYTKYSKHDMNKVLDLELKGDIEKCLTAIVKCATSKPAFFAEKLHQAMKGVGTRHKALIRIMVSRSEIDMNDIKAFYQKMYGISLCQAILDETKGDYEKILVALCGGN

[4] = molecular target: T3, Annexin A1 (Homo sapiens, UniProt P04083); assay: QCM
T3 chain: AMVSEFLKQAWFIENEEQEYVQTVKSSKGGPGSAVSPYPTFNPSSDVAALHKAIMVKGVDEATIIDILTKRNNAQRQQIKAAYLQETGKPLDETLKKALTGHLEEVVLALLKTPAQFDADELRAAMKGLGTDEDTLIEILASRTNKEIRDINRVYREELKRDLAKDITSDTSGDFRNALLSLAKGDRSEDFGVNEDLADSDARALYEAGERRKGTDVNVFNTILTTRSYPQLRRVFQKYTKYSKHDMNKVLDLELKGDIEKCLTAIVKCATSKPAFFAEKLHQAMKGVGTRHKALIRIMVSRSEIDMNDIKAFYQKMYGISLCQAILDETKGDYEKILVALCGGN

[5] = molecular target: T4, ANXA1 N-terminal peptide L-MC16 (Homo sapiens); assay: plate binding assay (ELISA)
T4 chain: MAMVSEFLKQAWFIEC

## CC(C)C[C@@H](N)C(=O)N[C@H](CC(C)C)C(=O)N[C@H](CO)C(=O)N[C@H](Cc1c[nH]c2ccccc12)C(=O)N1CCC[C@@H]1C(=O)N[C@H](CO)C(=O)N[C@H](C)C(=O)O [dLLS7] (H-[dL][dL][dS][dW][dP][dS][dA]-OH; N-terminus and C-terminus assumed)
[1]
  Localization of near infra-red fluorescence after intravenous injection: signals in brain, kidney and other organs

## CSCC[C@@H](N)C(=O)N1CCC[C@@H]1C(=O)N[C@@H](C(=O)N[C@H](CC(C)C)C(=O)N[C@@H](C(=O)N[C@H](Cc1ccccc1)C(=O)N[C@H](CCCNC(=N)N)C(=O)O)[C@H](C)O)[C@H](C)O [dMPT7] (H-[dM][dP][dT][dL][dT][dF][dR]-OH; N-terminus and C-terminus assumed)
[1]
  Localization of near infra-red fluorescence after intravenous injection: signals in brain, kidney and other organs

## CC(C)C[C@@H](NC(=O)[C@@H](CC(C)C)NC(=O)[C@@H](CO)NC(=O)[C@H](NC(=O)[C@H]1CCCN1C(=O)[C@H](N)CO)[C@H](C)O)C(=O)N[C@H](Cc1ccccc1)C(=O)O [dSPT7] (H-[dS][dP][dT][dS][dL][dL][dF]-OH; N-terminus and C-terminus assumed)
[1]
  Localization of near infra-red fluorescence after intravenous injection: signals in brain, kidney and other organs

## CC[C@@H](C)[C@@H](NC(=O)[C@H](N)[C@H](C)O)C(=O)N[C@@H](C(=O)N[C@H](Cc1c[nH]c2ccccc12)C(=O)N1CCC[C@@H]1C(=O)N[C@@H](C(=O)N[C@H](CCSC)C(=O)O)[C@H](C)O)[C@H](C)O [dTIT7]
[2]
  Kd: 8.5 nM and 8.56 nM

## IFLLWQR (linear all-L peptide; any N-terminal Cys/linker or conjugate left out) [IF7]
[3]
  Kd: 63.8 nM

B1: dLRF7 (peptide)
chain: [dL][dR][dF][dP][dT][dV][dL]
[4]
  Kd: 31.2 nM

B2: dTIT7 (peptide)
chain: Biotin-[dT][dI][dT][dW][dP][dT][dM]
[5]
  Kd: 8.5 nM

B3: dTIT7 (peptide)
chain: [dT][dI][dT][dW][dP][dT][dM]
[4]
  Kd: 46.6 nM
